In patent US6358885B1, “Substituted phenylheterocyclic herbicides” (Mississippi State University, priority 1992, dated 2002):

Key:
Test in all cases: Test B preemergence/postemergence greenhouse plant response rating 0 to 10
Settings in all cases: 0 to 10 scale
cocklebur = format: in vivo, Xanthium pensylvanicum
How it was run: (§1)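 Postemergence treatment of plants two to eighteen cm tall ran alongside preemergence treatment of planted seed, each using compound in a non-phytotoxic solvent.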

wheat = format: in vivo, Triticum aestivum
How it was run: as §1

barnyardgrass = format: in vivo, Echinochloa crus-galli
How it was run: as §1

lambsquarters = format: in vivo, Chenopodium album
How it was run: as §1

sugar beet = format: in vivo, Beta vulgaris
How it was run: as §1

morningglory = format: in vivo, Ipomoea hederacea
How it was run: as §1

chickweed = format: in vivo, Stellaria media
How it was run: as §1

sorghum = format: in vivo, Sorghum bicolor
How it was run: as §1

rice = format: in vivo, Oryza sativa
How it was run: as §1

blackgrass = format: in vivo, Alopecurus myosuroides
How it was run: as §1

soybean = format: in vivo, Glycine max
How it was run: as §1

cotton = format: in vivo, Gossypium hirsutum
How it was run: as §1

rape = format: in vivo, Brassica napus
How it was run: as §1

bedstraw = format: in vivo, Galium aparine
How it was run: as §1

crabgrass = format: in vivo, Digitaria spp.
How it was run: as §1

barley = format: in vivo, Hordeum vulgare
How it was run: as §1

purple nutsedge = format: in vivo, Cyperus rotundus
How it was run: as §1

velvetleaf = format: in vivo, Abutilon theophrasti
How it was run: as §1

wild oat = format: in vivo, Avena fatua
How it was run: as §1

cheatgrass = format: in vivo, Bromus secalinus
How it was run: as §1

corn = format: in vivo, Zea mays
How it was run: as §1

wild buckwheat = format: in vivo, Polygonum convolvulus
How it was run: as §1

giant foxtail = format: in vivo, Setaria faberii
How it was run: as §1

COCCN1C(=O)COc2cc(F)c(-c3nn4c(c3Cl)CCCC4)cc21 [Compound 53]
Plant response rating, Cocklebur (cocklebur; POSTEMERGENCE, Rate 10 g/ha): 9 | Plant response rating, Cocklebur (cocklebur; POSTEMERGENCE, Rate 50 g/ha): 10 | Plant response rating, Cocklebur (cocklebur; PREEMERGENCE, Rate 10 g/ha): 0 | Plant response rating, Cocklebur (cocklebur; PREEMERGENCE, Rate 50 g/ha): 1 | Plant response rating, Wheat (wheat; POSTEMERGENCE, Rate 10 g/ha): 7 | Plant response rating, Wheat (wheat; POSTEMERGENCE, Rate 50 g/ha): 7 | Plant response rating, Wheat (wheat; PREEMERGENCE, Rate 50 g/ha): 7 | Plant response rating, Barnyardgrass (barnyardgrass; POSTEMERGENCE, Rate 10 g/ha): 3 | Plant response rating, Barnyardgrass (barnyardgrass; POSTEMERGENCE, Rate 50 g/ha): 6 | Plant response rating, Barnyardgrass (barnyardgrass; PREEMERGENCE, Rate 10 g/ha): 2 | Plant response rating, Barnyardgrass (barnyardgrass; PREEMERGENCE, Rate 50 g/ha): 2 | Plant response rating, Lambsquarter (lambsquarters; POSTEMERGENCE, Rate 10 g/ha): 10 | Plant response rating, Lambsquarter (lambsquarters; POSTEMERGENCE, Rate 50 g/ha): 10 | Plant response rating, Lambsquarter (lambsquarters; PREEMERGENCE, Rate 50 g/ha): 10 | Plant response rating, Sugar beet (sugar beet; POSTEMERGENCE, Rate 10 g/ha): 10 | Plant response rating, Sugar beet (sugar beet; POSTEMERGENCE, Rate 50 g/ha): 10 | Plant response rating, Sugar beet (sugar beet; PREEMERGENCE, Rate 50 g/ha): 9 | Plant response rating, Morningglory (morningglory; POSTEMERGENCE, Rate 10 g/ha): 9 | Plant response rating, Morningglory (morningglory; POSTEMERGENCE, Rate 50 g/ha): 10 | Plant response rating, Morningglory (morningglory; PREEMERGENCE, Rate 50 g/ha): 10 | Plant response rating, Chickweed (chickweed; POSTEMERGENCE, Rate 10 g/ha): 9 | Plant response rating, Chickweed (chickweed; POSTEMERGENCE, Rate 50 g/ha): 9 | Plant response rating, Chickweed (chickweed; PREEMERGENCE, Rate 10 g/ha): 10 | Plant response rating, Chickweed (chickweed; PREEMERGENCE, Rate 50 g/ha): 10 | Plant response rating, Sorghum (sorghum; POSTEMERGENCE, Rate 10 g/ha): 3 | Plant response rating, Sorghum (sorghum; POSTEMERGENCE, Rate 50 g/ha): 3 | Plant response rating, Sorghum (sorghum; PREEMERGENCE, Rate 50 g/ha): 6 | Plant response rating, Rice (rice; POSTEMERGENCE, Rate 10 g/ha): 4 | Plant response rating, Rice (rice; POSTEMERGENCE, Rate 50 g/ha): 4 | Plant response rating, Rice (rice; PREEMERGENCE, Rate 50 g/ha): 1 | Plant response rating, Blackgrass (blackgrass; POSTEMERGENCE, Rate 10 g/ha): 5 | Plant response rating, Blackgrass (blackgrass; POSTEMERGENCE, Rate 50 g/ha): 5 | Plant response rating, Blackgrass (blackgrass; PREEMERGENCE, Rate 10 g/ha): 4 | Plant response rating, Blackgrass (blackgrass; PREEMERGENCE, Rate 50 g/ha): 6 | Plant response rating, Soybean (soybean; POSTEMERGENCE, Rate 10 g/ha): 9 | Plant response rating, Soybean (soybean; POSTEMERGENCE, Rate 50 g/ha): 9 | Plant response rating, Soybean (soybean; PREEMERGENCE, Rate 50 g/ha): 0 | Plant response rating, Cotton (cotton; POSTEMERGENCE, Rate 10 g/ha): 10 | Plant response rating, Cotton (cotton; POSTEMERGENCE, Rate 50 g/ha): 10 | Plant response rating, Cotton (cotton; PREEMERGENCE, Rate 10 g/ha): 0 | Plant response rating, Cotton (cotton; PREEMERGENCE, Rate 50 g/ha): 2 | Plant response rating, Rape (rape; POSTEMERGENCE, Rate 10 g/ha): 10 | Plant response rating, Rape (rape; POSTEMERGENCE, Rate 50 g/ha): 10 | Plant response rating, Rape (rape; PREEMERGENCE, Rate 50 g/ha): 2 | Plant response rating, Bedstraw (bedstraw; POSTEMERGENCE, Rate 10 g/ha): 8 | Plant response rating, Bedstraw (bedstraw; POSTEMERGENCE, Rate 50 g/ha): 10 | Plant response rating, Bedstraw (bedstraw; PREEMERGENCE, Rate 10 g/ha): 8 | Plant response rating, Bedstraw (bedstraw; PREEMERGENCE, Rate 50 g/ha): 9 | Plant response rating, Crabgrass (crabgrass; POSTEMERGENCE, Rate 10 g/ha): 3 | Plant response rating, Crabgrass (crabgrass; POSTEMERGENCE, Rate 50 g/ha): 4 | Plant response rating, Crabgrass (crabgrass; PREEMERGENCE, Rate 10 g/ha): 2 | Plant response rating, Crabgrass (crabgrass; PREEMERGENCE, Rate 50 g/ha): 6 | Plant response rating, Barley (barley; POSTEMERGENCE, Rate 10 g/ha): 4 | Plant response rating, Barley (barley; POSTEMERGENCE, Rate 50 g/ha): 6 | Plant response rating, Barley (barley; PREEMERGENCE, Rate 10 g/ha): 1 | Plant response rating, Barley (barley; PREEMERGENCE, Rate 50 g/ha): 1 | Plant response rating, Nutsedge (purple nutsedge; POSTEMERGENCE, Rate 10 g/ha): 6 | Plant response rating, Nutsedge (purple nutsedge; POSTEMERGENCE, Rate 50 g/ha): 6 | Plant response rating, Nutsedge (purple nutsedge; PREEMERGENCE, Rate 50 g/ha): 0 | Plant response rating, Velvetleaf (velvetleaf; POSTEMERGENCE, Rate 10 g/ha): 9 | Plant response rating, Velvetleaf (velvetleaf; POSTEMERGENCE, Rate 50 g/ha): 10 | Plant response rating, Velvetleaf (velvetleaf; PREEMERGENCE, Rate 50 g/ha): 9 | Plant response rating, Wild oat (wild oat; POSTEMERGENCE, Rate 10 g/ha): 6 | Plant response rating, Wild oat (wild oat; POSTEMERGENCE, Rate 50 g/ha): 7 | Plant response rating, Wild oat (wild oat; PREEMERGENCE, Rate 50 g/ha): 8 | Plant response rating, Cheatgrass (cheatgrass; POSTEMERGENCE, Rate 10 g/ha): 5 | Plant response rating, Cheatgrass (cheatgrass; POSTEMERGENCE, Rate 50 g/ha): 4 | Plant response rating, Cheatgrass (cheatgrass; PREEMERGENCE, Rate 10 g/ha): 3 | Plant response rating, Cheatgrass (cheatgrass; PREEMERGENCE, Rate 50 g/ha): 4 | Plant response rating, Corn (corn; POSTEMERGENCE, Rate 10 g/ha): 4 | Plant response rating, Corn (corn; POSTEMERGENCE, Rate 50 g/ha): 4 | Plant response rating, Corn (corn; PREEMERGENCE, Rate 50 g/ha): 0 | Plant response rating, Wild buckwheat (wild buckwheat; POSTEMERGENCE, Rate 10 g/ha): 10 | Plant response rating, Wild buckwheat (wild buckwheat; POSTEMERGENCE, Rate 50 g/ha): 10 | Plant response rating, Wild buckwheat (wild buckwheat; PREEMERGENCE, Rate 50 g/ha): 9 | Plant response rating, Giant foxtail (giant foxtail; POSTEMERGENCE, Rate 10 g/ha): 3 | Plant response rating, Giant foxtail (giant foxtail; POSTEMERGENCE, Rate 50 g/ha): 6 | Plant response rating, Giant foxtail (giant foxtail; PREEMERGENCE, Rate 10 g/ha): 2 | Plant response rating, Giant foxtail (giant foxtail; PREEMERGENCE, Rate 50 g/ha): 8
